Counter-ions that a name gives are not always drawn.

The values that follow come from patent publication US20120142668A1, “CATHEPSIN C INHIBITORS” (priority 2009, published 2012).

This assay has as its target recombinant human cathepsin C (Homo sapiens, UniProt P53634). Description: Recombinant Cathepsin C In Vitro Assay (cleavage of fluorogenic substrate H-Ser-Tyr-AMC). In kind it is biochemical. Conditions: 24 pM enzyme, pH 5.5, one hour preincubation with compound at room temperature, read-out: concentration at which 50% cathepsin C inhibition is exhibited. The method, then: C. Recombinant Cathepsin C In Vitro Assay:
The activity of recombinant human cathepsin C was measured by the cleavage of a fluorogenic substrate, H-Ser-Tyr-AMC. Briefly, 24 pM cathepsin C was incubated with test compound (e.g. inhibitor) in a buffer consisting of 50 mM sodium acetate, 30 mM sodium chloride, 1 mM CHAPS, 1 mM dithiothreitol, 1 mM EDTA, pH 5.5 at room temperature for one hour. After one hour of incubating test compound with cathepsin C, the activity assay was initiated by the addition of an equal volume of 0.010 mM H-Ser-Tyr-AMC in the same buffer. After one hour, the activity assay was stopped by the addition of ⅕ volume of 100 μM E-64. The reaction product was measured on a fluorescence reader set at an excitation wavelength of 360 nm and emission wavelength of 460 nm and equipped with a 400 nm dichroic mirror.

Sequence of recombinant human cathepsin C (P53634 25-463): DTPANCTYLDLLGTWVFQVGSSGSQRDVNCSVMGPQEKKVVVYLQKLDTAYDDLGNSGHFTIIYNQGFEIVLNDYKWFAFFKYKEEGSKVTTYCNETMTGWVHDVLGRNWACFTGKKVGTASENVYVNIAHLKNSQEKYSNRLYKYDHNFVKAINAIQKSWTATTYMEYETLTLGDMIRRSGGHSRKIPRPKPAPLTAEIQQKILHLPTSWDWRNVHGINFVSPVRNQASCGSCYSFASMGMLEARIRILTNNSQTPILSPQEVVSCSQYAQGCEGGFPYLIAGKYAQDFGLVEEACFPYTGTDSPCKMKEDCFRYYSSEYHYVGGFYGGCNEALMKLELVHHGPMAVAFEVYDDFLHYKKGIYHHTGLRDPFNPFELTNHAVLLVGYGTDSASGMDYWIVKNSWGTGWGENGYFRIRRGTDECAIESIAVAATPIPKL

On to `C[C@H](N)C(=O)N[C@H](/C=C/C(=O)N(C)C)CCc1ccccc1` [Example 3, (2E,4S)-4-(L-alanylamino)-N,N-dimethyl-6-phenyl-2-hexenamide hydrochloride], for which the IC50 is approximately 1000 nM.

Regarding `C[C@H](N)C(=O)N[C@H](/C=C/C(=O)NCc1ccccc1)CCc1ccccc1` [Example 1, (2E,4S)-4-(L-alanylamino)-6-phenyl-N-(phenylmethyl)-2-hexenamide hydrochloride], the IC50 is approximately 100 nM.
